From patent US9096601B2 (CSPC Zhongqi Pharmaceutical Technology (Shijiazhuang) Co., …, priority 2010, dated 2015)
pIC50: −log10 of the molar value.

Columns and labels:
Assay in all cases: In-vitro tumor cell proliferation inhibition, MTT
Type in all cases: cell-based, human
[1] = test system: chronic granulocytic leukemia cell strain K562; settings: 72 hours
Description: (§1) The object of this assay was to test the inventive compounds for the inhibitory activity of in-vitro tumor cell proliferation. The MTT (tetreamethyl-azo-zole-salt) colorimetric method was used in this assay.
(§2) Human non-small cell lung carcinoma cell strains HCC827, PC-9, H1975 (EGFR L858R/T790M mutation) and H292 (EGFR WT), and other tumor type cell strains, including human acute myelogenous leukemia cell strain MV4-11, human chronic granulocytic leukemia cell strain K562, human squamous cell carcinoma cell strain A431, human breast carcinoma cell strains MDA-MB-468 and BT 474, human colon cancer cell strains SW480, HCT116 and SW620, human liver cancer cell strain Hep G2, human gastric cancer cell strain MK-45, and human malignant melanoma cell strain A375 used in this assay were all purchased from ATCC company, USA and kept in the laboratory. All of the above-mentioned non-small cell lung carcinoma cell strains and the breast carcinoma cell strain BT 474 were cultured with a RPMI-1640 complete culture medium containing 10% fetal bovine serum, 100 U/ml penicillin and 100 μg/ml streptomycin under 5% CO2 and at 37° C. The other cell strains were cultured with a DMEM complete culture medium containing 10% fetal bovine serum (having a MV4-11 cell content of 20%), 100 U/ml penicillin and 100 μg/ml streptomycin under 5% CO2 and 37° C.
(§3) A cell suspension having a cell concentration of 1-2×10^4 cells/ml was treated with a complete cell culture solution to adjust the cell concentration, wherein the cell concentrations for HCC827 and MV4-11 were adjusted to 6×10^4 cells/ml and 1×10^5 cells/ml respectively. The cell suspension was inoculated in a 96-well plate with 200 μl cell suspension/well and cultured overnight. Next day, the supernatant was drawn off and discarded. Then, the cells were treated with the tested compounds in a gradient concentration respectively. In the meanwhile, a negative control group free of the drug substance and an isovolumetric solvent control group (having a DMSO concentration of 1%) were used. The triplicate wells were used for each of dose groups. The culturing was conducted at 37° C. under 5% CO2. After 72 hours, […] having a concentration of 5 mg/ml was added to each of wells. The culturing was further conducted for 2-4 hours. The supernatant was discarded. Then […] was added to each of wells. The contents in the well were mixed homogenously by oscillation for 15 minutes. The absorbance (A) value was measured with a microplate reader at λ=570 nm (the A value is in the direct proportion to the number of living cells) and averaged. The relative cell proliferation inhibitory rate is (A570 control-group−A570 dose-group)/A570 control-group×100%. The assay was repeated for at least three times. The data was expressed as number average. The statistical data were analyzed using t-test. P<0.05 was considered significant. The cell proliferation inhibition of the following compounds was expressed as IC50 or inhibitory rate.

[2] = test system: squamous cell carcinoma cell strain A431; settings: 72 hours
Description: as §1, §2, §3

[3] = test system: liver cancer cell strain Hep G2; settings: 72 hours, read-out: HEPG2 (IC50)
Description: as §1, §2, §3

[4] = test system: breast carcinoma cell strain MDA-MB-468; settings: 72 hours
Description: as §1, §2, §3

[5] = test system: colon cancer cell strain SW480; settings: 72 hours
Description: as §1, §2, §3

[6] = test system: colon cancer cell strain HCT116; settings: 72 hours
Description: as §1, §2, §3

[7] = test system: gastric cancer cell strain MK-45; settings: 72 hours, read-out: MK45 (IC50)
Description: as §1, §2, §3

[8] = test system: acute myelogenous leukemia cell strain MV4-11; settings: 72 hours
Description: as §1, §2, §3

[9] = test system: colon cancer cell strain SW620; settings: 72 hours
Description: as §1, §2, §3

[10] = test system: malignant melanoma cell strain A375; settings: 72 hours
Description: as §1, §2, §3

[11] = test system: breast carcinoma cell strain BT474; settings: 72 hours
Description: as §1, §2, §3

[12] = test system: non-small cell lung carcinoma cell strain HCC827; settings: 72 hours
Procedure: as §1
(§4) All of the above-mentioned non-small cell lung carcinoma cell strains and the breast carcinoma cell strain BT 474 were cultured with a RPMI-1640 complete culture medium containing 10% fetal bovine serum, 100 U/ml penicillin and 100 μg/ml streptomycin under 5% CO2 and at 37° C. The other cell strains were cultured with a DMEM complete culture medium containing 10% fetal bovine serum (having a MV4-11 cell content of 20%), 100 U/ml penicillin and 100 μg/ml streptomycin under 5% CO2 and 37° C.
as §3

[13] = test system: non-small cell lung carcinoma cell strain H1975 (EGFR L858R/T790M mutation); settings: 72 hours
Procedure: as §1, §4, §3

[14] = test system: non-small cell lung carcinoma cell strain PC-9 (EGFR delE746-A750 deletion mutation); settings: 72 hours
Procedure: as §1, §4, §3

[15] = test system: non-small cell lung carcinoma cell strain H292 (EGFR WT); settings: 72 hours
Procedure: as §1, §4, §3

SMILES | pIC50 [1] | pIC50 [2] | pIC50 [3] | pIC50 [4] | pIC50 [5] | pIC50 [6] | pIC50 [7] | pIC50 [8] | pIC50 [9] | pIC50 [10] | pIC50 [11] | pIC50 [12] | pIC50 [13] | pIC50 [14] | pIC50 [15]
CN1CCN(NC(=O)c2ccc(Nc3ncc4nc(Nc5cccnc5)n(C5CCCC5)c4n3)cc2)CC1 [Compounds 8-37] | 6.05 | < 5.00 | < 5.00 | < 5.00 | < 5.00 | < 5.00 | < 5.00 | 6.99 | < 5.00 | < 5.00 | 5.34 | 6.89 | < 5.00 | 6.46 | 5.23
CC(C)n1c(Nc2ccc(OCc3cccc(F)c3)c(Cl)c2)nc2cnc(Nc3ccc(N4CCOCC4)cc3)nc21 [Compounds 8-42] | 6.04 | 5.65 | < 5.00 | 5.77 | < 5.00 | < 5.00 | 5.29 | 5.18 | < 5.00 | 6.30 | 5.29 | 5.37 | < 5.00 | 5.48 | 6.17
CN1CCN(c2ccc(Nc3ncc4nc(Nc5cccc([N+](=O)[O-])c5)n(C5CCCC5)c4n3)cc2)CC1 [Compounds 8-44] | 7.02 | 6.39 | < 5.00 | 5.57 | 5.21 | < 5.00 | 5.87 | 5.94 | 5.60 | 5.76 | 6.17 | 9.52 | 6.16 | 8.82 | 8.54
CN1CCN(c2ccc(Nc3ncc4nc(NCc5ccccc5)n(C5CCCC5)c4n3)cc2)CC1 [Compounds 8-45] | 6.66 | 5.72 | < 5.00 | 5.54 | 5.11 | 5.15 | 5.43 | 7.23 | 5.30 | 5.03 | 6.06 | 9.70 | 5.94 | 8.01 | 7.86
C#Cc1cccc(Nc2nc3cnc(Nc4ccc(N5CCN(C)CC5)cc4)nc3n2C2CCCC2)c1 [Compounds 8-46] | 6.60 | 6.37 | < 5.00 | 6.12 | 5.40 | 5.04 | 6.38 | 5.33 | 5.44 | 6.40 | 6.10 | 9.52 | 6.11 | 8.46 | < 5.00
CN1CCN(c2ccc(Nc3ncc4nc(Nc5ccc(Br)cc5F)n(C5CCCC5)c4n3)cc2)CC1 [Compounds 8-47] | 7.01 | 6.52 | 5.07 | 5.50 | 5.26 | 5.22 | 5.93 | 6.65 | 5.31 | 5.80 | 6.26 | 9.52 | 6.05 | 7.79 | 7.35
c1ccc(Nc2nc3cnc(Nc4ccc(CN5CCOCC5)cc4)nc3n2C2CCCC2)cc1 [Compounds 8-48] | 6.64 | 6.10 | < 5.00 | 5.67 | 5.00 | < 5.00 | 6.53 | 6.23 | 5.53 | 5.68 | 6.28 | 9.70 | 5.34 | 7.58 | 7.73
CN1CCN(c2ccc(Nc3ncc4nc(Nc5ccccc5)n(C5CCCCC5)c4n3)cc2)CC1 [Compounds 8-50] | 7.52 | 7.08 | 5.08 | 6.68 | 5.57 | 5.61 | 6.66 | 7.19 | 6.02 | 5.81 | 5.66 | 9.52 | 6.74 | 8.46 | < 5.00

Results, then the compound that gave them:

pIC50 [1] | pIC50 [2] | pIC50 [3] | pIC50 [4] | pIC50 [5] | pIC50 [6] | pIC50 [7] | pIC50 [8] | pIC50 [9] | pIC50 [10] | pIC50 [11] | pIC50 [12] | pIC50 [13] | pIC50 [14] | pIC50 [15] | SMILES
5.80 | 5.59 | 5.07 | 5.49 | 5.00 | 4.98 | 5.78 | 6.90 | < 5.00 | 5.18 | 5.58 | 7.20 | 5.20 | 6.38 | 5.91 | Cc1nc(Nc2ccc(N3CCN(C)CC3)cc2)nc2c1nc(Nc1ccccc1)n2C(C)C [Compounds 8-34]
6.63 | 6.20 | 5.36 | 5.72 | 5.23 | 6.17 | 5.95 | 6.87 | 5.64 | 5.49 | 6.72 | 9.70 | 5.82 | 8.82 | 7.69 | CN1CCN(c2ccc(Nc3ncc4nc(Nc5ccc(F)c(Cl)c5)n(C5CCCC5)c4n3)cc2)CC1 [Compounds 8-35]
6.84 | 5.56 | 5.66 | 5.35 | 5.27 | 5.27 | 5.48 | 5.71 | 5.67 | < 5.00 | 5.68 | 7.78 | 6.30 | 6.68 | 6.57 | CC(C)n1c(Nc2ccc(Cl)nc2)nc2cnc(Nc3ccc(N4CCN(C)CC4)cc3)nc21 [Compounds 8-41]
6.91 | 6.31 | 5.23 | 5.99 | 5.24 | 5.59 | 6.63 | 7.67 | 5.24 | 5.72 | 5.74 | 9.52 | 6.64 | 7.28 | 6.99 | CN1CCN(c2ccc(Nc3ncc4nc(Nc5ccc(Br)cc5)n(C5CCCC5)c4n3)cc2)CC1 [Compounds 8-43]
6.92 | 6.23 | 5.03 | 6.01 | 5.30 | 5.84 | 6.27 | 6.71 | 5.84 | 5.70 | 5.57 | 9.52 | 6.51 | 9.70 | 8.35 | CN1CCN(c2ccc(Nc3ncc4nc(Nc5cccc(F)c5)n(C5CCCC5)c4n3)cc2)CC1 [Compounds 8-49]
7.95 | 6.61 | 5.09 | 6.45 | 5.17 | 5.38 | 6.61 | 8.44 | 6.14 | 6.27 | 6.12 | 9.70 | 6.20 | 8.02 | 7.65 | CN1CCN(c2ccc(Nc3ncc4nc(Nc5cccc(O)c5)n(C5CCCC5)c4n3)cc2)CC1 [Compounds 8-51]
